These results are taken from patent US8686048B2, “Immunomodulator and anti-inflammatory compounds” (Rhizen Pharmaceuticals SA, priority 2010, dated 2014).

Series [1] deals with CD4+ cell. Put plainly: Inhibition of PHA induced CD4+ cell proliferation in PBMC. The series is classed as cell-based. Particulars: Homo sapiens, isolated PBMC, 48 h, flow cytometry. As for the experimental part: d. Inhibition of PHA Induced CD4+ Cell Proliferation in PBMC:
Isolated PBMC were treated with desired concentration of inhibitor and induced with 5 μM PHA. % CD4+ cell viability was determined after 48 h by flow cytometry. Data were analyzed using GraphPad Prism. IC50 values for each compound were determined based on the percent inhibition due to the test compound compared to the control.

In series [2] the test system is CD4+ cell. Put plainly: Inhibition of PHA induced CD4+ cell proliferation in human whole blood. It counts as cell-based. The settings on record: 48 h, flow cytometry. As to the method:
c. Inhibition of PHA Induced CD4+ Cell Proliferation in Human Whole Blood:
HWB or were treated with desired concentration of inhibitor and induced with 5 μM PHA. % CD4+ cell viability was determined after 48 h by flow cytometry. Data were analyzed using GraphPad Prism. Percent inhibition and IC50 values for each compound were determined based on the percent inhibition due to the test compound compared to the control.

For the next series, the system named is PBMC. Put plainly: Inhibition of PHA induced PBMC proliferation (MTT). It counts as cell-based. Particulars: Homo sapiens, 48 h. As for the experimental part: a. Inhibition of PHA Induced PBMC Proliferation:
PBMC from freshly collected HWB was isolated by density gradient using Histopaque and seeded in a 96-well plate. Wells were incubated with desired concentrations of the inhibitor for 15 min. Proliferation was induced by the addition of 2 μM Phytohemagglutinin at 37° C. in an atmosphere containing […]. Viability was determined after 48 h using an 3-(4,5-Dimethylthiazol-2-yl)-2,5-diphenyltetrazolium bromide (MTT) assay. Data were analyzed using GraphPad Prism. percent inhibition and/or GI50 values for each compound were determined based on the percent inhibition due to the test compound compared to the control.

Another series addresses T1, h-DHODH (Homo sapiens, UniProt Q02127).
T1 construct: endogenous in cells; host or cells: U937 cells (membrane fraction, solubilised with 1% octyl glucoside)
Put plainly: Dihydro-orotate dehydrogenase inhibition assay (U937 membrane preparations, DCIP reduction). The series is classed as biochemical. Particulars: U937 membrane preparation; for inhibition at 0.3 µM: compound tested at 0.3 uM (footnote *). The gist of the method:
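Detergent (1% octyl glucoside) extract of U937 cell membranes; dihydro-orotate-driven DCIP reduction followed as absorbance change at 600 nm after 4 h at 37° C. IC50 derived from percent inhibition of […].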

Series [3] can be described thus: Single dose oral hepatotoxicity assay. The series is classed as in vivo, BALB/cJ mice. The settings on record: serum, 24 hr after 100 mg/kg po single dose, mice. As to the method:
5. Single Dose Oral Hepatotoxicity Assay:
BALB/cJ (n=4 or 5/sex) mice aged 8 to 10 weeks, with weights ranging from 18 to 25 g were used. They were housed under conditions of controlled temperature and humidity and a 12-h light/dark cycle. They were given continuous access to bottled spring water and fed a standard chow at ad libitum. The mice were allowed to acclimate for 1 week before use. On the day of experiment mice were fasted overnight for 12 h and administered with test item formulation (100 mg/kg·b·wt/po) or vehicle (10 ml/kg·b·wt/po) by oral route and food was given 4 hr after test item administration. After 24 hr post administration blood samples were collected from orbital sinus of all the animals and serum was separated to assess the hepatotoxicity. Biochemical evaluation of liver function was determined by measuring serum enzyme activities of alanine aminotransferase (ALT) and aspartate aminotransferase (AST) using commercially available kits from Sigma (St. Louis, Mo.).

In a further series the test system is IL-17. Put plainly: Inhibition of IL-17 release from mouse splenocytes (PMA + ionomycin, ELISA). It counts as cell-based, Balb/c mice. Particulars: Splenocyte, 3 h. The gist of the method:
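Balb/c splenocytes (1×10^6 cells/ml, RPMI) were pretreated with inhibitor for 15 min, then stimulated with 10 ng/ml PMA plus 1 μM ionomycin. Supernatant IL-17 was measured by ELISA after 3 h. IC50 was derived from percent inhibition relative to control.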

The test system of another series is HIV. Particulars: at a concentration that can be obtained with conventional dosing; cited from earlier work.
For series [4] the following is noted: patients; cited from earlier work.

A value given as a limit tells only on which side of the number the result lay.

T1 sequence (Q02127 whole entry): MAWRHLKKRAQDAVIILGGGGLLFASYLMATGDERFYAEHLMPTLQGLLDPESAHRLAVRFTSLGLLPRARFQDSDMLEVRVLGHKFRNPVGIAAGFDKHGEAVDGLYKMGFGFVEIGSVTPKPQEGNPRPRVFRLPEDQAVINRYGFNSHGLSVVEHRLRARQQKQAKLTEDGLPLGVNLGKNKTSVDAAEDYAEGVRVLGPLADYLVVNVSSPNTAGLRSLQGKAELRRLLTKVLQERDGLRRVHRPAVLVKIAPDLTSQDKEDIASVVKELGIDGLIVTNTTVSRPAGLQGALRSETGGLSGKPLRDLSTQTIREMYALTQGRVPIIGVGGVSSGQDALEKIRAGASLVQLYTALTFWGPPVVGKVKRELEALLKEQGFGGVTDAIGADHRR

Take `CCc1c[nH]c2ccc(-c3cc(F)c(NC(=O)c4ccccc4C(=O)O)c(F)c3)cc12` [Example 75, 2-[4-(3-ethyl-1H-indol-5-yl)-2,6-difluorophenylcarbamoyl]benzoic acid]: the melting point was in the range of 157.9 to 160.9 °C. Moreover, in the series with CD4+ cell [1], the inhibition at 1 µM was > 90%. Moreover, in the series on CD4+ cell [2], the inhibition at 1 µM was > 65%. For the same compound, the inhibition at 10 µM in the series on PBMC was > 70%. For the same compound, at h-DHODH, the concentration for half-maximal inhibition (IC50) stood at 1.52 nM and the inhibition at 0.3 µM worked out at 100%. Moreover, in series [3], the ALT was determined as 93.9 U/L and the AST is 210.8 U/L. Also, in the series on IL-17, the inhibition at 10 µM was determined as 29.4% and the IC50 amounted to 32900 nM.

Compound `CCCCOc1cccc(-c2cc(F)c(NC(=O)c3ccccc3C(=O)O)c(F)c2)c1` [Example 35, 2-(3′-Butoxy-3,5-difluorobiphenyl-4-ylcarbamoyl)benzoic acid] registered a melting point of 119.3 to 123.3 °C. Moreover, at h-DHODH, the inhibition at 1 µM is 86.5% and half-maximal inhibition (IC50) was put at 11.9 nM. In [3], the ALT came to 108.3 U/L and the AST is 172 U/L. For the same compound, the inhibition at 10 µM in the series on IL-17 was 7.76%.

On to `Cc1oncc1C(=O)Nc1ccc(C(F)(F)F)cc1` [leflunomide, Leflunomide], for which the “reduction of HIV replication” value in the series with HIV was “about 75%”. Besides, the half-life time result in series [4] is “approximately 2 weeks”.

For the compound `CCOc1cccc(-c2ccc(NC(=O)c3ccccc3C(=O)O)cc2)c1` [Example 70, 2-(3′-ethoxybiphenyl-4-ylcarbamoyl)benzoic acid], on h-DHODH, the inhibition at 1 µM is 14%. In series [3], this compound gave an ALT of 84 U/L and an AST of 210.4 U/L. Also, in the series with IL-17, the inhibition at 10 µM was determined as 48.4% and the IC50 is 9110 nM.

With `O=C(O)c1ccccc1C(=O)Nc1c(F)cc(-c2ccccc2F)cc1F` [Example 32, 2-(2′,3,5-Trifluorobiphenyl-4-ylcarbamoyl)benzoic acid], the melting point lay in the range of 152.2 to 156.3 °C. The compound further gave an inhibition at 1 µM on h-DHODH of 58.9%. For the same compound, in the series with IL-17, the inhibition at 10 µM came out at 11.8%.

`O=C(O)c1ccccc1C(=O)Nc1c(F)cc(-c2cccc(OC(F)(F)F)c2)cc1Cl` [Example 39, 2-[3-Chloro-5-fluoro-3′-(trifluoromethoxy)biphenyl-4-ylcarbamoyl]benzoic acid] gave a melting point of 153 to 156.5 °C. At h-DHODH, testing at 1 µM gave an inhibition of 74.4% and it took 178 nM to reach half-maximal inhibition (IC50). Further, the inhibition at 10 µM in the series on IL-17 is 5.87%.

Compound `CCCOc1cccc(-c2cc(F)c(NC(=O)c3ccccc3C(=O)O)c(Cl)c2)c1` [Example 19, 2-(3-Chloro-5-fluoro-3′-propoxybiphenyl-4-ylcarbamoyl)benzoic acid] gave a melting point of 144 to 148 °C. At h-DHODH, this compound displayed an inhibition at 1 µM of 82.2% and an IC50 of 44.6 nM. In series [3], this compound showed an ALT of 87.9 U/L and an AST of 126.5 U/L. Besides, the inhibition at 10 µM in the series with IL-17 came out at 19%.

`CC(C)COc1cccc(-c2cc(F)c(NC(=O)c3ccccc3C(=O)O)c(Cl)c2)c1` [Example 31, 2-(3-Chloro-5-fluoro-3′-isobutoxybiphenyl-4-ylcarbamoyl)benzoic acid] gave a melting point of 202 to 205.5 °C. Further, on h-DHODH, the inhibition at 1 µM was determined as 73.5% and the IC50 came to 44.6 nM. In [3], this compound had an ALT of 65.1 U/L and an AST of 161.4 U/L. Also, the inhibition at 10 µM with IL-17 is 21.1%.

The compound `O=C(O)c1ccccc1C(=O)Nc1c(F)cc(-c2ccccc2Cl)cc1F` [Example 8, 2-(2′-Chloro-3,5-difluorobiphenyl-4-ylcarbamoyl)benzoic acid] showed a melting point of 143.5 to 145.1 °C. At h-DHODH, the inhibition at 1 µM is 85.8% and the IC50 came out at 90 nM. Moreover, the inhibition at 10 µM in the series on IL-17 was 35.4%.

In turn, `O=C(O)c1ccccc1C(=O)Nc1c(F)cc(-c2ccccc2)cc1F` [Example 10, 2-(3,5-Difluorobiphenyl-4-ylcarbamoyl)benzoic acid] gave a melting point of 161.2 to 165.7 °C. The same compound gave an inhibition at 1 µM at h-DHODH of 46.8%. Besides, the inhibition at 10 µM in the series with IL-17 worked out at 6.82%.

Compound `CCCOc1cccc(-c2ccc(NC(=O)c3ccccc3C(=O)O)c(F)c2)c1` [Example 80, 2-(3-fluoro-3′-propoxybiphenyl-4-ylcarbamoyl)benzoic acid] registered a melting point of 116 to 119 °C. At h-DHODH, this compound registered an inhibition at 0.3 µM of 47.6%. Moreover, the inhibition at 10 µM with IL-17 was 20.1%.

In turn, `CCCOc1cccc(-c2ccc(NC(=O)c3ccccc3C(=O)O)cc2)c1` [Example 81, 2-(3′-propoxybiphenyl-4-ylcarbamoyl)benzoic acid] came in with a melting point of 152 to 154 °C. At h-DHODH, this compound had an inhibition at 0.3 µM of 11.2%. Moreover, the inhibition at 10 µM in the series with IL-17 amounted to 23%.

For `O=C(O)c1ccccc1C(=O)Nc1c(F)cc(-c2cccc(OC3CCCC3)c2)cc1Cl` [Example 42, 2-(3-Chloro-3′-(cyclopentyloxy)-5-fluorobiphenyl-4-ylcarbamoyl)benzoic acid], the melting point was 122 to 126 °C. Further, the inhibition at 10 µM in the series on PBMC was > 70%. At h-DHODH, this compound yielded an inhibition at 1 µM of 76.9% and an IC50 of 24 nM. In [3], this compound gave an ALT of 113 U/L and an AST of 189.6 U/L. Further, in the series with IL-17, the inhibition at 10 µM amounted to 22.3%.

`O=C(O)c1ccccc1C(=O)Nc1ccc(-c2cccc(OC(F)(F)F)c2)cc1` [Example 88, 2-[3′-(trifluoromethoxy)biphenyl-4-ylcarbamoyl]benzoic acid] displayed a melting point of 154.4 to 158.5 °C. The compound further had an inhibition at 0.3 µM against h-DHODH of 62.2%. Besides, the inhibition at 10 µM in the series with IL-17 is 19.1%.

Compound `O=C(O)c1nccnc1C(=O)Nc1c(F)cc(-c2cccc(OCc3ccccc3)c2)cc1F` [Example 9, 3-[3′-(Benzyloxy)-3,5-difluorobiphenyl-4-ylcarbamoyl]pyrazine-2-carboxylic acid] returned a melting point of 142 to 144.5 °C. This compound showed an inhibition at 1 µM at h-DHODH of 10.3%. The inhibition at 10 µM in the series with IL-17 was determined as 26.9%.

With `O=C(O)c1ccccc1C(=O)Nc1c(Cl)cc(-c2ccccc2F)cc1Cl` [Example 24, 2-(3,5-Dichloro-2′-fluorobiphenyl-4-ylcarbamoyl)benzoic acid], the melting point lay within 185.4 to 193.6 °C. The same compound yielded an inhibition at 1 µM against h-DHODH of 40.2%. The inhibition at 10 µM with IL-17 stood at 8.46%.

The compound `COc1cccc(-c2cc(F)c(NC(=O)c3nccnc3C(=O)O)c(F)c2)c1` [Example 6, 3-(3,5-Difluoro-3′-methoxybiphenyl-4-ylcarbamoyl)pyrazine-2-carboxylic acid] yielded a melting point of 180.1 to 183.4 °C. This compound also yielded an inhibition at 1 µM at h-DHODH of 2.26%. The inhibition at 10 µM in the series with IL-17 was 9.52%.

The compound `CCOc1cccc(-c2cc(F)c(NC(=O)c3ccccc3C(=O)O)c(Cl)c2)c1` [Example 15, 2-(3-Chloro-3′-ethoxy-5-fluorobiphenyl-4-ylcarbamoyl)benzoic acid] came in with a melting point of 135 to 140 °C. For the same compound, on h-DHODH, the inhibition at 1 µM was found to be 75.5% and the IC50 is 129 nM. In addition, the inhibition at 10 µM in the series on IL-17 came to 57.5%.

In the case of `CCOc1cccc(-c2cc(F)c(NC(=O)c3cccc(C)c3C(=O)O)c(F)c2)c1` [Example 74, 2-(3′-ethoxy-3,5-difluorobiphenyl-4-ylcarbamoyl)-6(5)-methylbenzoic acid], the melting point is 138 to 140 °C. The same compound displayed an inhibition at 0.3 µM against h-DHODH of 7.14%. Besides, the inhibition at 10 µM with IL-17 was 13.8%.
